Literature values as cited in PMC8391575, “Identification of Novel Cathepsin B Inhibitors with Implications in Alzheimer’s Disease: Computational Refining and Biochemical Evaluation” (Cells, 2021).
Where two headings read alike, the source gives them in different places. Where a SMILES comes first, the peptide text is derived from it.

Test system: cathepsin B
Settings: cited from earlier work
[1] = Figure 1, previously reported inhibitors of cathepsin B, read-out: IC50
[2] = class of the experimental IC50, read-out: Activity Scale Experimental
[3] = Table S1, read-out: IC50: half maximal inhibitory concentration
[4] = read-out: Activity Scale Experimental

SMILES	pIC50 Experimental (Table 4)	IC50 [2] [nM]	IC50 [3] [nM]	further results
COc1ccc(-c2cc(=O)c3c(O)cc(O)c(-c4cc(-c5cc(=O)c6c(O)cc(O)cc6o5)ccc4O)c3o2)cc1 [AMF2, 4’’’-methylamentoflavone]	–	–	–	IC50 [1]: 1030 nM
O=C1C[C@@H](c2ccc(O)c(-c3c(O)cc(O)c4c(=O)cc(-c5ccc(O)cc5)oc34)c2)Oc2cc(O)cc(O)c21 [AMF4, 2,3-dihydroamentoflavone]	–	–	–	IC50 [1]: 620 nM
COc1ccc(-c2cc(=O)c3c(O)cc(O)cc3o2)cc1-c1c(O)cc(O)c2c(=O)cc(-c3ccc(O)cc3)oc12 [AMF5, 4’-methylamentoflavone]	–	–	–	IC50 [1]: 810 nM
CC(C)CC(NC(=O)C1OC1C(=O)O)C(=O)NCCCCCO (centres unmarked) [Compound N1, 3-[[1-(5-hydroxypentylamino)-4-methyl-1-oxopentan-2-yl]carbamoyl]oxirane-2-carboxylic acid]	7.14	< 300	–	–
CC(C)C[C@H](NC(=O)C1OC1C(=O)O)C(=O)NCCCC[C@H](N)C(=O)O (stereo partly drawn) [Compound N2, 3-[[(2S)-1-[[(5S)-5-amino-5-carboxypentyl]amino]-4-methyl-1-oxopentan-2-yl]carbamoyl]oxirane-2-carboxylic acid]	6.89	< 300	130	–
O=c1cc(-c2ccc(O)c(-c3c(O)cc(O)c4c(=O)cc(-c5ccc(O)cc5)oc34)c2)oc2cc(O)cc(O)c12 [Compound N3, 8-[5-(5,7-dihydroxy-4-oxochromen-2-yl)-2-hydroxyphenyl]-5,7-dihydroxy-2-(4-hydroxyphenyl)chromen-4-one]	5.76	300 to 2500	1750	IC50 [1]: 1170 nM
COc1ccc(-c2cc(=O)c3c(O)cc(O)c(-c4cc(-c5cc(=O)c6c(O)cc(OC)cc6o5)ccc4OC)c3o2)cc1 [Compound N4, 5,7-dihydroxy-8-[5-(5-hydroxy-7-methoxy-4-oxochromen-2-yl)-2-methoxyphenyl]-2-(4-methoxyphenyl)chromen-4-one]	6.21	300 to 2500	620	–
NCCCCNC(=O)[C@H](Cc1ccccc1)NC(=O)[C@H]1O[C@@H]1C(=O)O [Compound N6, (2S,3S)-3-({(2S)-1-[(4-Aminobutyl)amino]-1-oxo-3-phenyl-2-propanyl}carbamoyl)-2-oxiranecarboxylic acid]	6.58	< 300	260	–
NCCCCNC(=O)[C@H](Cc1ccc(O)cc1)NC(=O)[C@H]1O[C@@H]1C(=O)O [Compound N7, (2S,3S)-3-{[(2S)-1-[(4-Aminobutyl)amino]-3-(4-hydroxyphenyl)-1-oxo-2-propanyl]carbamoyl}-2-oxiranecarboxylic acid]	6.55	< 300	280	–
CC1=C(O)C(=O)C=C2C1=CC=C1[C@@]2(C)CC[C@@]2(C)[C@@H]3C[C@](C)(C(=O)O)CC[C@]3(C)CC[C@]12C [Compound N8, (2R,4aS,6aR,6aS,14aS,14bR)-10-hydroxy-2,4a,6a,6a,9,14a-hexamethyl-11-oxo-1,3,4,5,6,13,14,14b-octahydropicene-2-carboxylic acid]	3.91	> 2500	1250	IC50 (read-out: IC50): 125000 nM
CC(C)C[C@H](NC(=O)[C@@H](NC(=O)N[C@@H](Cc1ccccc1)C(=O)O)C1CCN=C(N)N1)C(=O)N[C@H](C=O)Cc1ccccc1 (stereo partly drawn) [Compound N9, (2S)-2-[[(1S)-1-(2-amino-1,4,5,6-tetrahydropyrimidin-6-yl)-2-[[(2S)-4-methyl-1-oxo-1-[[(2S)-1-oxo-3-phenylpropan-2-yl]amino]pentan-2-yl]amino]-2-oxoethyl]carbamoylamino]-3-phenylpropanoic acid]	5.59	> 2500	2600	–
O=[N+]([O-])NC1=NCCN1Cc1ccc(Cl)nc1 [Compound N10, N-[1-[(6-chloropyridin-3-yl)methyl]-4,5-dihydroimidazol-2-yl]nitramide]	8.03	< 300	–	–
Cc1c2ccncc2c(C)c2c1[nH]c1ccccc12 [Compound N12, 5,11-dimethyl-6H-pyrido[4,3-b]carbazole]	7.99	< 300	–	–
CC(C)C[C@H](NC(=O)[C@H]1O[C@@H]1C(=O)O)C(=O)NCCCCN=C(N)N [Compound N13, (2S,3S)-3-[[(2S)-1-[4-(diaminomethylideneamino)butylamino]-4-methyl-1-oxopentan-2-yl]carbamoyl]oxirane-2-carboxylic acid]	8.28	< 300	–	–
CC(C)CCNC(=O)[C@H](CC(C)C)NC(=O)[C@H]1O[C@@H]1C(=O)O [Compound N14, (2S,3S)-3-[[(2S)-4-methyl-1-(3-methylbutylamino)-1-oxopentan-2-yl]carbamoyl]oxirane-2-carboxylic acid]	–	–	–	pIC50 Experimental: 8.47; IC50 [4]: < 300 nM
NC(N)=NCCCCNC(=O)C(Cc1ccccc1)NC(=O)C1OC1C(=O)O (centres unmarked) [Compound N15, 3-[[1-[4-(diaminomethylideneamino)butylamino]-1-oxo-3-phenylpropan-2-yl]carbamoyl]oxirane-2-carboxylic acid]	6.57	< 300	270	–

SMILES	pIC50 Experimental (Table 4)	IC50 [2] [nM]	IC50 [3] [nM]	further results
NC(N)=NCCCCNC(=O)C(Cc1ccc(O)cc1)NC(=O)C1OC1C(=O)O (centres unmarked) [Compound N16, 3-[[1-[4-(diaminomethylideneamino)butylamino]-3-(4-hydroxyphenyl)-1-oxopropan-2-yl]carbamoyl]oxirane-2-carboxylic acid]	6.49	300 to 2500	320	–
COc1cc(O)c2c(=O)cc(-c3ccc(OC)c(-c4c(O)cc(O)c5c(=O)cc(-c6ccc(O)cc6)oc45)c3)oc2c1 [Compound N17, 5,7-dihydroxy-8-[5-(5-hydroxy-7-methoxy-4-oxochromen-2-yl)-2-methoxyphenyl]-2-(4-hydroxyphenyl)chromen-4-one]	6.26	300 to 2500	550	–
COc1cc(OC)cc(-c2cc3cnc(N)nc3nc2NC(=O)NC(C)(C)C)c1 [Compound N18, 1-[2-amino-6-(3,5-dimethoxyphenyl)pyrido[2,3-d]pyrimidin-7-yl]-3-tert-butylurea]	6.24	300 to 2500	580	–
CC(=O)N[C@@H](CC(C)C)C(=O)N[C@@H](CC(C)C)C(=O)N[C@H](C=O)CCCN=C(N)N [Compound N19, 2-acetamido-N-[1-[[5-(diaminomethylideneamino)-1-oxopentan-2-yl]amino]-4-methyl-1-oxopentan-2-yl]-4-methylpentanamide; 2,2,2-trifluoroacetic acid]	6.36	300 to 2500	440	–
COc1cc(O)c2c(=O)cc(-c3ccc(O)c(-c4c(O)cc(O)c5c(=O)cc(-c6ccc(O)cc6)oc45)c3)oc2c1 [Compound N21, 5,7-dihydroxy-8-[2-hydroxy-5-(5-hydroxy-7-methoxy-4-oxochromen-2-yl)phenyl]-2-(4-hydroxyphenyl)chromen-4-one]	5.77	300 to 2500	1680	–
Cn1ncnc2c(=O)n(C)c(=O)nc1-2 [Compound N22, 1,6-dimethylpyrimido[5,4-e][1,2,4]triazine-5,7-dione]	7.34	< 300	–	–
CCOC(=O)[C@H]1O[C@@H]1C(=O)N[C@H](C(=O)N1CCC[C@H]1C(=O)O)[C@@H](C)CC [Compound S2, (2S)-1-[(2S,3S)-2-[[(2S,3S)-3-ethoxycarbonyloxirane-2-carbonyl]amino]-3-methylpentanoyl]pyrrolidine-2-carboxylic acid]	8.55	< 300	–	–
CC(=O)NC(CC(C)C)C(=O)NC(C(=O)NC(C=O)CCCCN)C(C)C (stereo not drawn) [Compound S3, 2-acetamido-N-[1-[(6-amino-1-oxohexan-2-yl)amino]-3-methyl-1-oxobutan-2-yl]-4-methylpentanamide] (Ac-Leu-Val-Lys-aldehyde; configuration not given here)	8.4	< 300	–	–
CC(NC(=O)C(Cc1ccccc1)NC(=O)OCc1ccccc1)C([O-])=C[N+]#N (centres unmarked) [Compound S4, 1-diazonio-3-[[3-phenyl-2-(phenylmethoxycarbonylamino)propanoyl]amino]but-1-en-2-olate]	8.03	< 300	–	–
Nc1nonc1-c1nc2ccccc2n1Cc1ccc(F)cc1 [Compound S5, 4-[1-[(4-fluorophenyl)methyl]benzimidazol-2-yl]-1,2,5-oxadiazol-3-amine]	4.47	> 2500	–	–
Cc1ccc(S(=O)(=O)n2nc(OC(=O)c3cccs3)cc2N)cc1 [Compound S7, [5-amino-1-(4-methylphenyl)sulfonylpyrazol-3-yl] thiophene-2-carboxylate]	5.7	300 to 2500	1990	–
COc1ccc(S(=O)(=O)n2nc(OC(=O)c3ccc(C)cc3)cc2N)cc1 [Compound S8]	4.91	> 2500	–	–
CCn1nc(-c2ccccc2)nc2c(=O)n(C)c(=O)nc1-2 [Compound S9, 1-ethyl-6-methyl-3-phenylpyrimido[5,4-e][1,2,4]triazine-5,7-dione]	–	–	–	pIC50 Experimental: 7.15; IC50 [4]: < 300 nM
Nc1cc(OC(=O)c2ccco2)nn1S(=O)(=O)c1ccc(F)cc1 [Compound S10, [5-amino-1-(4-fluorophenyl)sulfonylpyrazol-3-yl] furan-2-carboxylate]	5.9	300 to 2500	–	–
O=C(OC(C(=O)NCc1cccs1)c1ccccn1)c1cccs1 (centres unmarked) [Compound S11, [2-oxo-1-pyridin-2-yl-2-(thiophen-2-ylmethylamino)ethyl]thiophene-2-carboxylate]	5.2	> 2500	–	–
